According to patent US8785455B2, “Polymorph of linagliptin benzoate” (Sandoz AG, priority 2011, dated 2014):

What was measured:
[1] = stability upon storage at conditions of high relative humidity; assay type: physicochemical
[2] = dynamic water vapor sorption/desorption (moisture sorption isotherm); assay type: physicochemical; settings: for hygroscopicity (in words): comparison of moisture sorption isotherms, FIGS. 4 and 5; for water uptake: from about 3 to 90% relative humidity at about 25° C., w % = weight % of water in relation to total weight
Protocol: The water uptake of the crystalline forms of Linagliptin benzoate was determined by dynamic water vapor sorption/desorption. Therefore both forms were conditioned at about 28% relative humidity (RH) and the initial water content was determined by Karl-Fischer-titration. Then a moisture sorption experiment was performed with an SPSx-1μ moisture sorption analyzer (Projekt Messtechnik, Ulm) by stepwise increasing the RH in the range of about 3% RH to about 90% RH within approximately 2.5 days at 25±0.1° C.

| SMILES | stability upon storage [1] | hygroscopicity (in words) [2] | water uptake [2] | hygroscopicity (in words) ([2]; listed as crystalline form of Linagliptin benzoate of WO2010/072776 A1) |
| --- | --- | --- | --- | --- |
| CC#CCn1c(N2CCC[C@@H](N)C2)nc2c1c(=O)n(Cc1nc(C)c3ccccc3n1)c(=O)n2C [Linagliptin benzoate form II, Linagliptin benzoate] | more stable than form I | significantly less hygroscopic than crystalline Linagliptin benzoate of WO2010/072776 A1 | about 2.0 w % | – |
| CC#CCn1c(N2CCC[C@@H](N)C2)nc2c1c(=O)n(Cc1nc(C)c3ccccc3n1)c(=O)n2C [crystalline Linagliptin benzoate of WO2010/072776 A1] [reference compound] | – | – | about 9.5 w % | quite hygroscopic |
